Measured values: US20080085833A1, “Use Of Glycerol As An Anti-Moss And/Or Anti-Lichen Agent” (priority 2004, published 2008)

Test system: mosses and lichens
Assay: Anti-moss and anti-lichen effect of glycerol-based compositions, overall observation on mosses and lichens
Format: in vivo
From the text: An anti-moss and/or anti-lichen composition is first prepared by solubilizing the required amount of glycerol in water at room temperature, in an appropriate vessel, to give a solution containing 99%, 65% or 20% by weight of glycerol.
The anti-moss and/or anti-lichen composition is maintained at this same temperature in a vessel fitted with a nozzle to enable the product to be sprayed onto a vertical or horizontal surface.
A sufficient amount of anti-moss and/or anti-lichen composition containing 99%, 65% or 20% by weight of glycerol, with or without gluconic acid, is applied by the process of the invention to 3 different surfaces covered with crustaceous lichens, gelatinous lichens and mosses.
For the series of 3 treatments, visual observations were made periodically after treatment with the glycerol compositions described, and then at regular intervals for 3 weeks.

Compound: OCC(O)CO [Pure glycerol, glycerol]
- anti-moss and/or anti-lichen activity on dilution (glycerol diluted to 20%): without losing its anti-moss and/or anti-lichen activity
- efficacy for removing mosses and/or lichens (pure glycerol): effective
